In patent US11261177B2, “Benzoxazinone derivatives useful as herbicides” (REDAG CROP PROTECTION LTD, priority 2017, dated 2022) one finds pest or weed control and herbicidal activity data, which are given here for nine compounds.

Holding throughout (format): in vivo
Test [1] concerns Lolium perenne. Nature of the test: Pre-emergence herbicidal assay, 96 cell trays, glasshouse. To be noted: 168 h, second trial (Table 2), Lollium, assessed 7 days after treatment, read-out: % control of plant growth; for pest or weed control at 200 g/ha: 0.2 kg/ha; for pest or weed control at 1000 g/ha: 1 kg/ha; for pest or weed control at 5000 g/ha: 5 kg/ha. Summed up:
(§1)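 Efficacy is expressed as % control of plant growth, judged 7 days after application. Application: soil surface 1 day post-sowing (pre) or foliar spray at two weeks (post), at 0.2, 1 or 5 kg/ha.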

Test [2] relates to Stellaria media—Chickweed. The test is described as above. To be noted: 168 h, second trial (Table 2), assessed 7 days after treatment, read-out: % control of plant growth; for pest or weed control at 200 g/ha: 0.2 kg/ha; for pest or weed control at 1000 g/ha: 1 kg/ha; for pest or weed control at 5000 g/ha: 5 kg/ha. The method in brief: as §1
Test [3] has as its system Lolium perenne. The test can be described thus: Post-emergence herbicidal assay, 96 cell trays, glasshouse. Particulars: 168 h, second trial (Table 2), Lollium, assessed 7 days after treatment, read-out: % control of plant growth; for pest or weed control at 200 g/ha: 0.2 kg/ha; for pest or weed control at 1000 g/ha: 1 kg/ha; for pest or weed control at 5000 g/ha: 5 kg/ha. Summed up: as §1

In test [4] the test system is Stellaria media—Chickweed. The test is described as above. Particulars: 168 h, second trial (Table 2), assessed 7 days after treatment, read-out: % control of plant growth; for pest or weed control at 200 g/ha: 0.2 kg/ha; for pest or weed control at 1000 g/ha: 1 kg/ha; for pest or weed control at 5000 g/ha: 5 kg/ha. The method in brief:
as §1

The test system of test [5] is 2 weed species (Stellaria media—Chickweed and Lolium perenne). The test can be described thus: Herbicidal activity screen, summary in words over both weed species. Particulars: pre- and post-emergence, 0.2, 1 and 5 kg/ha. As for the experimental part:
The compounds were screened at three concentrations (0.2, 1 and 5 kg/ha) against 2 weed species (Stellaria media—Chickweed and Lolium perenne). The seeds were sown in the cells of 96 cell trays (4-6 seeds per cell). For the pre-emergence assay, 75 μL of a suspension of the test compound, at the above doses, was added on top of the soil 1 day after sowing. For the post-emergence assay, the seedlings were sprayed with 200 μL of a suspension of the test compound two weeks after sowing. The formulation used is 25% acetone and 75% water/0.01% Tween 20. Each treatment was replicated three times. The plants were kept in a glasshouse (uncontrolled conditions) and assessed 7 days after treatment. A small number of compounds were tested in a first trial. A larger number of compounds were tested in a second trial. The assessment was based on the % control of plant growth in each cell.

For `CCOC(=O)C(C)N1C(=O)C2(CC2)Oc2cc(F)c(N3C(=O)c4ccc(F)cc4C3=O)cc21` (stereo not drawn) [Example 19], the pest or weed control at 200 g/ha with Lolium perenne [1] lay within 20 to 80%; in test [2], 80 to 100%; in the test with Lolium perenne [3], 20 to 80%; in test [4], 80 to 100%. For the same compound, the pest or weed control at 1000 g/ha (in the test with Lolium perenne [1]; in test [2]; in the test on Lolium perenne [3]; in test [4]) was 80 to 100% each time. The pest or weed control at 5000 g/ha (in the test with Lolium perenne [1]; in test [2]; in the test with Lolium perenne [3]; in test [4]) was 80 to 100% each time. Besides, in test [5], the herbicidal activity result is “excellent herbicidal activity against all tested species”.
With `O=C1c2ccc(F)cc2C(=O)N1c1cc2c(cc1F)OC1(CC1)C(=O)N2CC1CC1` [Example 26], the pest or weed control at 200 g/ha (in the test on Lolium perenne [1]; in test [2]; in the test on Lolium perenne [3]; in test [4]) was 80 to 100% in each case. The pest or weed control at 1000 g/ha (with Lolium perenne [1]; in test [2]; in the test on Lolium perenne [3]; in test [4]) was 80 to 100% throughout. The pest or weed control at 5000 g/ha (with Lolium perenne [1]; in test [2]; in the test with Lolium perenne [3]; in test [4]) was 80 to 100% each time. Moreover, the herbicidal activity entry in test [5] is on record as “excellent herbicidal activity against all tested species”.
In the case of `COCCN1C(=O)C2(CC2)Oc2cc(F)c(N3C(=O)c4ccc(F)cc4C3=O)cc21` [Example 27], the pest or weed control at 200 g/ha in the test on Lolium perenne [1] was 20 to 80%; in test [2] it was 80 to 100%; with Lolium perenne [3], 20 to 80%; in test [4], 80 to 100%. Further, the pest or weed control at 1000 g/ha (in the test on Lolium perenne [1]; in test [2]; with Lolium perenne [3]; in test [4]) was 80 to 100% throughout. Further, the pest or weed control at 5000 g/ha (with Lolium perenne [1]; in test [2]; with Lolium perenne [3]; in test [4]) was 80 to 100% each time. Also, in test [5], the herbicidal activity entry is listed as “excellent herbicidal activity against all tested species”.
Consider `C#CCN1C(=O)C2(CC2)Oc2cc(F)c(N3C(=O)CCC3=O)cc21` [Example 28, 1-(7-Fluoro-3-oxo-4-(prop-2-yn-1-yl)-3,4-dihydrospiro[benzo[b][1,4]oxazine-2,1′-cyclopropan]-6-yl)pyrrolidine-2,5-dione], for which the pest or weed control at 200 g/ha in the test with Lolium perenne [1] lay within 80 to 100%; in test [2], 80 to 100%; in the test on Lolium perenne [3], 20 to 80%; in test [4] it was 80 to 100%. The pest or weed control at 1000 g/ha (in the test on Lolium perenne [1]; in test [2]; in the test on Lolium perenne [3]; in test [4]) was 80 to 100% throughout. Also, the pest or weed control at 5000 g/ha (in the test on Lolium perenne [1]; in test [2]; with Lolium perenne [3]; in test [4]) was 80 to 100% in each case. Further, the herbicidal activity result in test [5] is “excellent herbicidal activity against all tested species”.
As to `C#CCN1C(=O)C2(CC2)Oc2cc(F)c(N3C(=O)CC(C)CC3=O)cc21` [Example 29, 1-(7-Fluoro-3-oxo-4-(prop-2-yn-1-yl)-3,4-dihydrospiro[benzo[b][1,4]oxazine-2,1′-cyclopropan]-6-yl)-4-methylpiperidine-2,6-dione], the pest or weed control at 200 g/ha in the test on Lolium perenne [1] was 80 to 100%; in test [2], 80 to 100%; in the test on Lolium perenne [3], less than 20%; in test [4], 80 to 100%. For the same compound, the pest or weed control at 1000 g/ha lay within 80 to 100% with Lolium perenne [1], 80 to 100% in test [2], 20 to 80% in the test on Lolium perenne [3] and 80 to 100% in test [4]. Further, the pest or weed control at 5000 g/ha lay within 80 to 100% with Lolium perenne [1], 80 to 100% in test [2], 20 to 80% in the test on Lolium perenne [3] and 80 to 100% in test [4]. The herbicidal activity result in test [5] was “excellent herbicidal activity against all tested species”.
Consider `C#CCN1C(=O)C2(CC2)Oc2cc(F)c(/N=c3\sc(=O)n4n3CCCC4)cc21` [Example 31, (Z)-7-Fluoro-6-((3-oxotetrahydro-1H,3H-[1,3,4]thiadiazolo[3,4-a]pyridazin-1-ylidene)amino)-4-(prop-2-yn-1-yl)spiro[benzo[b][1,4]oxazine-2,1′-cyclopropan]-3(4H)-one], for which the pest or weed control at 200 g/ha (in the test on Lolium perenne [1]; in test [2]; in the test with Lolium perenne [3]; in test [4]) was 80 to 100% throughout. Further, the pest or weed control at 1000 g/ha (in the test on Lolium perenne [1]; in test [2]; in the test on Lolium perenne [3]; in test [4]) was 80 to 100% throughout. Besides, the pest or weed control at 5000 g/ha (in the test with Lolium perenne [1]; in test [2]; with Lolium perenne [3]; in test [4]) was 80 to 100% throughout. In addition, in test [5], the herbicidal activity result is “excellent herbicidal activity against all tested species”.
For the compound `C#CCN1C(=O)C2(CC2)Oc2cc(F)c(-n3c(=O)cc(C(F)(F)F)n(C)c3=O)cc21` [Example 34, 3-(7-Fluoro-3-oxo-4-(prop-2-yn-1-yl)-3,4-dihydrospiro[benzo[b][1,4]oxazine-2,1′-cyclopropan]-6-yl)-1-methyl-6-(trifluoromethyl)pyrimidine-2,4(1H,3H)-dione], the pest or weed control at 200 g/ha in the test on Lolium perenne [1] lay within 20 to 80%; in test [2], 80 to 100%; in the test on Lolium perenne [3] it was 20 to 80%; in test [4], 80 to 100%. Also, the pest or weed control at 1000 g/ha (with Lolium perenne [1]; in test [2]; in the test on Lolium perenne [3]; in test [4]) was 80 to 100% in each case. Also, the pest or weed control at 5000 g/ha (in the test on Lolium perenne [1]; in test [2]; with Lolium perenne [3]; in test [4]) was 80 to 100% in each case. Besides, the herbicidal activity result in test [5] is “excellent herbicidal activity against all tested species”.
With `C#CCN1C(=O)C2(CC2)Oc2cc(F)c(-n3c(=O)cc(C(F)(F)F)n(CCC)c3=O)cc21` [Example 43], the pest or weed control at 200 g/ha with Lolium perenne [1] is 20 to 80%; in test [2], 20 to 80%; with Lolium perenne [3], 20 to 80%; in test [4] it was 80 to 100%. The pest or weed control at 1000 g/ha fell in the range of 80 to 100% with Lolium perenne [1], 80 to 100% in test [2], 20 to 80% with Lolium perenne [3] and 80 to 100% in test [4]. The pest or weed control at 5000 g/ha (with Lolium perenne [1]; in test [2]; in the test on Lolium perenne [3]; in test [4]) was 80 to 100% throughout. In test [5], the herbicidal activity result was “excellent herbicidal activity against all tested species”.
Regarding `C#CCN1C(=O)C2(CC2)Oc2cc(F)c(N3C(=O)C4CCCN4C3=O)cc21` (stereo not drawn) [Example 44, 2-(7-Fluoro-3-oxo-4-(prop-2-yn-1-yl)-3,4-dihydrospiro[benzo[b][1,4]oxazine-2,1′-cyclopropan]-6-yl)tetrahydro-1H-pyrrolo[1,2-c]imidazole-1,3(2H)-dione], the pest or weed control at 200 g/ha is less than 20% with Lolium perenne [1], 80 to 100% in test [2], 80 to 100% with Lolium perenne [3] and 80 to 100% in test [4]. Also, the pest or weed control at 1000 g/ha in the test on Lolium perenne [1] fell in the range of 20 to 80%; in test [2] it was 80 to 100%; in the test with Lolium perenne [3] it was 80 to 100%; in test [4] it was 80 to 100%. Besides, the pest or weed control at 5000 g/ha (in the test on Lolium perenne [1]; in test [2]; in the test with Lolium perenne [3]; in test [4]) was 80 to 100% in each case. The herbicidal activity result in test [5] is recorded as “excellent herbicidal activity against all tested species”.
